From ChEMBL document CHEMBL5608179, “Triptonide induces apoptosis and inhibits the proliferation of ovarian cancer cells by activating the p38/p53 pathway and autophagy” (Bioorg Med Chem, 2024)
Calls of active or inactive are those of the source. No cut-off for these calls is given here.

Experiments:
[1] = test system: A2780; test: Induction of apoptosis in human A2780 cells assessed as increase in cleaved caspase 3 level measured after 12 to 48 hrs by Western blot analysis; format: functional, cell-based; conditions: dose 5-20 nM, time 12-48 hrs
[2] = test system: A2780; test: Antiproliferative activity against human A2780 cells assessed as number of fluorescent dots in presence of p53 SiRNA 1 at 4 nM measured after 24 hrs by KitkFluor555 Click-iT EdU Kit staining assay; format: functional, cell-based
[3] = test system: A2780; test: Induction of apoptosis in human A2780 cells assessed as late apoptotic cells in presence of SB203580 at 8 nM measured after 24 to 72 hrs by Annexin V-FITC/PI flow cytometry (reference value: 2.54%); format: functional; conditions: time 24-72 hrs
[4] = test system: A2780; test: Antiproliferative activity against human A2780 cells assessed as number of fluorescent dots in presence of p53 SiRNA 1 in presence of bafilomycin A1 at 4 nM measured after 24 hrs by KitkFluor555 Click-iT EdU Kit staining assay; format: functional, cell-based
[5] = test system: A2780; test: In vivo antitumor activity against human A2780 cells subcutaneously inoculated in BALB/c-nu mouse assessed as reduction in tumor volume at 3 to 5 mg/kg, ip administered every day for 20 days; format: functional, organism-based; conditions: dose 3-5 mg/kg, time 20.0 day
[6] = test system: A2780; test: Induction of cell cycle arrest in human A2780 cells assessed as accumulation of cells at S phase in presence of SB203580 at 4 nM measured after 24 hrs by PI staining based Cell Cycle Analysis Kit (KeyGEN) (reference value: 15%); format: functional
[7] = test system: A2780; test: Induction of apoptosis in human A2780 cells assessed as increase in cleaved caspase 9 level measured after 12 to 48 hrs by Western blot analysis; format: functional, cell-based; conditions: dose 5-20 nM, time 12-48 hrs
[8] = test system: A2780; test: Cytotoxicity against human A2780 cells assessed as cell viability measured after 24 to 72 hrs by MTT assay; format: functional, cell-based; conditions: dose 4-64 nM, time 24-72 hrs
[9] = test system: A2780; test: Induction of apoptosis in human A2780 cells assessed as increase in cleaved PARP level measured after 12 to 48 hrs by Western blot analysis; format: functional, cell-based; conditions: dose 5-20 nM, time 12-48 hrs
[10] = test system: A2780; test: Induction of apoptosis in human A2780 cells assessed as decrease in cleaved Bcl-2 level measured at 5 to 20 nM after 12 to 48 hrs by Western blot analysis; format: functional, cell-based; conditions: dose 5-20 nM, time 12-48 hrs
[11] = Toxicity in BALB/c-nu mouse subcutaneously inoculated with human A2780 cells assessed as morphological changes of liver at 3 to 5 mg/kg, ip administered every day for 20 days by HE staining analysis; format: organism-based; conditions: in vivo, sc, 480 h, dose 3-5 mg/kg, time 20 day
[12] = test system: A2780; test: Induction of apoptosis in human A2780 cells assessed as late apoptotic cells at 800 nM measured after 24 hrs by Annexin V-FITC/PI flow cytometry (reference value: 1.58%); format: functional
[13] = test system: A2780; test: Induction of apoptosis in human A2780 cells assessed as early apoptotic cells at 800 nM measured after 24 hrs by Annexin V-FITC/PI flow cytometry (reference value: 2.17%); format: functional
[14] = test system: A2780; test: Induction of apoptosis in human A2780 cells assessed as viable cells at 800 nM measured after 24 hrs by Annexin V-FITC/PI flow cytometry (reference value: 96.1%); format: functional; conditions: read-out: Activity
[15] = target: MAP kinase p38 (Homo sapiens) (UniProt O15264+Q15759+Q16539+P53778); test: Activation of p38 in human A2780 cells assessed as increase phosphorylation of p38 at 5 to 20 nM measured after 24 hrs by Western blot analysis; format: cell-based; conditions: filed as activator, dose 5-20 nM
[16] = test system: A2780; test: Induction of cleaved PARP level in human A2780 cells in presence of autophagy inhibitor bafilomycin A1 at 5 to 20 nM measured after 24 hrs by Western blot analysis; format: functional, cell-based; conditions: dose 5-20 nM
[17] = test system: A2780; test: Induction of cell cycle arrest at S phase in human A2780 cells assessed as increase in cyclin E1 proteins in presence of SB203580 measured at 10 nM after 24 hrs by Western blot analysis; format: functional, cell-based
[18] = test system: A2780; test: Induction of LC3II expression in human A2780 cells at 5 to 20 nM measured after 24 hrs by Western blot analysis; format: functional, cell-based; conditions: dose 5-20 nM
[19] = test system: A2780; test: Induction of apoptosis in human A2780 cells assessed as necrotic cells at 800 nM measured after 24 hrs by Annexin V-FITC/PI flow cytometry (reference value: 0.18%); format: functional
[20] = test system: A2780; test: Induction of cell cycle arrest at S phase in human A2780 cells assessed as increase in cyclin B1 proteins measured after 24 hrs by Western blot analysis; format: functional, cell-based; conditions: dose 5-20 nM
[21] = test system: A2780; test: Induction of cell cycle arrest in human A2780 cells assessed as accumulation of cells at G2 phase at 1 nM measured after 24 hrs by PI staining based ell Cycle Analysis Kit (KeyGEN) (reference value: 22.2%); format: functional
[22] = test system: A2780; test: Cytotoxicity against human A2780 cells assessed as cell viability measured at 4 to 64 nM by MTT assay; format: functional, cell-based; conditions: dose 4-64 nM, time 24-72 hrs, TDE = time-dependent effect
[23] = test system: A2780; test: Reduction in p62 expression in human A2780 cells in presence of autophagy inhibitor bafilomycin A1 at 5 to 20 nM measured after 24 hrs by Western blot analysis; format: functional, cell-based; conditions: dose 5-20 nM
[24] = test system: A2780; test: Induction of cell cycle arrest in human A2780 cells assessed as accumulation of cells at S phase at 4 nM measured after 24 hrs by PI staining based Cell Cycle Analysis Kit (KeyGEN) (reference value: 15%); format: functional
[25] = test system: A2780; test: Induction of apoptosis in human A2780 cells assessed as viable cells in presence of bafilomycin A1 at 800 nM measured after 24 hrs by Annexin V-FITC/PI flow cytometry (reference value: 96.1%); format: functional
[26] = test system: A2780; test: Antiproliferative activity against human A2780 cells assessed as number of fluorescent dots in presence of SB203580 at 4 nM measured after 24 hrs by KitkFluor555 Click-iT EdU Kit staining assay; format: functional, cell-based
[27] = test system: A2780; test: Induction of p38 expression in human A2780 cells in presence of SB203580 at 5 to 20 nM measured after 24 hrs by Western blot analysis; format: functional, cell-based; conditions: dose 5-20 nM
[28] = test system: A2780; test: Induction of apoptosis in human A2780 cells assessed as late apoptotic cells in presence of bafilomycin A1 at 800 nM measured after 24 hrs by Annexin V-FITC/PI flow cytometry (reference value: 1.58%); format: functional

With `CC(C)[C@]12O[C@H]1[C@@H]1O[C@]13[C@]1(O[C@H]1C[C@H]1C4=C(CC[C@@]13C)C(=O)OC4)[C@@H]2O` [TRIPTOLIDE] the Activity [1] was “Dose-Dependent Effect”, the Activity [2] was “inactive” and the Activity [3] was 12%. The Activity [4] was “inactive”, the Activity [5] was “Active” and the Activity [6] was 19.3%. The Activity [7] was “Dose-Dependent Effect”, the Activity [8] was “Dose-Dependent Effect” and the Activity [9] was “Dose-Dependent Effect”. The Activity [10] was “Dose-Dependent Effect”, the Activity [11] was “Non-Toxic” and the Activity [12] was 9.01%. For the same molecule, the Activity [13] was 14.7%, the viability at 0.8 µM [14] was 74% and the Activity [15] was “Active”. For the same molecule, the Activity [16] was “inactive”, the Activity [17] was “inactive” and the Activity [18] was “Active”. The Activity [19] was 2.33%, the Activity [20] was “Dose-Dependent Effect” and the Activity [21] was 15.4%. The Activity [22] was “Tde”, the Activity [23] was “inactive” and the Activity [24] was 29.4%. For the same molecule, the Activity [25] was 90.3%, the Activity [26] was “inactive” and the Activity [27] was “Active”. For the same molecule, the Activity [28] was 3.96%.
